Measured values from patent US7601737B2, “Isotopically substituted proton pump inhibitors” (priority 2005, dated 2009).
Where two headings read alike, the source gives them in different places.

Tests used:
[1] = system: human cryopreserved hepatocytes
Experimental: (§3) Following the evaluation of the metabolic clearance of the compounds according to the invention via P450 enzymes, the formation kinetics of the main metabolite identified in humans, i.e. M2 (5-(difluoromethoxy)-2-[[(3-methoxy-4-sulfate-2-pyridyl)-methyl]sulfinyl]-1H-benzimidazole) was determined. Because the generation of M2 involves the oxidation of the 4-methoxy-pyridyl group by CYP2C19 and subsequent conjugation with 3′-phosphoadenosine-5′-phosphosulfate (PAPS) by an unidentified sulphotransferase, human cryopreserved hepatocytes were used since both phase I and phase II enzymes are functional in this in vitro system.
(§4) M2 formation rate under these conditions was linear up to 60 min. The M2 formation rate was determined at nine different compound concentrations (0, 0.5, 1.0, 2.5, 5.0, 10.0, 25.0, 50.0 and 100 μMol/L) incubated in duplicate for 60 min at 37° C. M2 was quantified using LC-MS/MS. M2 isolated from human urine was used as an external standard. The concentration to reach the half-maximal formation rate (KM-value) and the maximal formation rate (Vmax) were obtained by non-linear regression analysis using the Michaelis-Menten equation. The intrinsic clearance (Clint) was obtained dividing Vmax over KM.

in vitro [2] = conditions: human, hepatocytes
Experimental: as §3, §4

in vitro [3] = conditions: human, hepatocytes; remark: listed apart in the source
Description: (§1) 5-hydroxy-omeprazole was quantified using LC-MS/MS.

[4] = system: human cryopreserved hepatocytes; assay: in vitro; conditions: for % Σ Clint rac. Omeprazole: hepatocytes
Description: as §1

[5] = Metabolisation in liver microsomes (rat); format: in vitro ADME; conditions: for Percent of compound metabolized: 10 μM, 90 minutes incubation; for Ratio of percent metabolized, Example/Pantoprazole: 90 minutes
Experimental: (§2) Pantoprazole or examples 1 or 2 (10 μM each) were incubated with liver microsomes (source: all from GenTest except Mini Pig from TEBU),incubation in 1 mg/ml protein, 100 mM Tris-HCl, pH 7.4, 1 mM NADPH2). Reaction was terminated after 90 minutes by liquid nitrogen, the parent compound was detected by HPLC (10 mM KH2PO4, pH 7.4, acetonitril gradient 20-44%).

[6] = Metabolisation in liver microsomes (dog); format: in vitro ADME; conditions: for Percent of compound metabolized: 10 μM, 90 minutes incubation; for Ratio of percent metabolized, Example/Pantoprazole: 90 minutes
Experimental: as §2

[7] = Metabolisation in liver microsomes (human); format: in vitro ADME; conditions: for Percent of compound metabolized: 10 μM, 90 minutes incubation; for Ratio of percent metabolized, Example/Pantoprazole: 90 minutes
Experimental: as §2

[8] = Metabolisation in liver microsomes (mouse); format: in vitro ADME; conditions: for Percent of compound metabolized: 10 μM, 90 minutes incubation; for Ratio of percent metabolized, Example/Pantoprazole: 90 minutes
Experimental: as §2

[9] = Metabolisation in liver microsomes (guinea pig); format: in vitro ADME; conditions: Guinee pig liver microsomes; for Percent of compound metabolized: 10 μM, 90 minutes incubation; for Ratio of percent metabolized, Example/Pantoprazole: 90 minutes
Experimental: as §2

[10] = Metabolisation in liver microsomes (monkey); format: in vitro ADME; conditions: for Percent of compound metabolized: 10 μM, 90 minutes incubation; for Ratio of percent metabolized, Example/Pantoprazole: 90 minutes
Experimental: as §2

[11] = Metabolisation in liver microsomes (mini pig); format: in vitro ADME; conditions: for Percent of compound metabolized: 10 μM, 90 minutes incubation; for Ratio of percent metabolized, Example/Pantoprazole: 90 minutes
Experimental: as §2

[12] = Table 2, relative to rac. pantoprazole
[13] = Table 3, pooled human hepatocytes, M2 formation, Vmax over KM
[14] = Table 3, relative to rac. pantoprazole

Compound: COc1ccnc(C[S@@+]([O-])c2nc3cc(OC(F)F)ccc3[n-]2)c1OC.COc1ccnc(C[S@@+]([O-])c2nc3cc(OC(F)F)ccc3[n-]2)c1OC.O.O.O.[Na+].[Na+] [(R)-pantoprazole Na 1.5 H2O, reference compound]
- % Σ Clint (R)-pantoprazole ([1]; human, hepatocytes): 100%
- Intrinsic clearance (Clint) ([1]; human, hepatocytes): 25.7 μl/min/10^6 cells

Compound: [2H]C([2H])([2H])Oc1ccnc(C[S@+]([O-])c2nc3cc(OC(F)F)ccc3[nH]2)c1OC [Example 5, Sodium (S)-{[5-(difluoromethoxy)]-2-[(3-methoxy-4-trideuteriomethoxy-2-pyridinyl)methylsulphinyl]-1H-benzimidazolide} hydrate]
- % Σ Clint (S)-pantoprazole ([1]; Table 2, relative to (S)-pantoprazole): 21%

Compound: [2H]C([2H])([2H])Oc1c(OC)ccnc1C[S+]([O-])c1nc2cc(OC(F)F)ccc2[nH]1 (racemic) [Example 22, rac-5-Difluoromethoxy-2-[(4-methoxy-3-trideuteriomethoxy-2-pyridinyl)methylsulfinyl]-1H-benzimidazole]
- Substrate concentrations at which formation of M2 appeared to be inhibited ([1]; human, 60 min): above 100 μM
- % Σ Clint rac. Pantoprazole ([1]; human, hepatocytes): 79%
- % Σ Clint rac. pantoprazole ([1]; human, hepatocytes): 79%
- Intrinsic clearance (Clint) ([1]; human, hepatocytes): 22.0 μl/min/10^6 cells
- hepatocyte CLint (in vitro [2]): 22 µL/min/1e6 cells

Compound: O.[2H]COc1ccnc(C[S+]([O-])c2nc3cc(OC(F)F)ccc3[nH]2)c1OC.[Na] (racemic) [Example 25, rac-5-Difluoromethoxy-2-[(3-methoxy-4-monodeuteriomethoxy-2-pyridinyl)methylsulfinyl]-1H-benzimidazole sodium salt mono hydrate]
- % Σ Clint rac. pantoprazole [1, 12]: 63%
- Intrinsic clearance (Clint) [1, 13]: 17.7 μl/min/10^6 cells
- % Σ Clint rac. Pantoprazole [1, 14]: 63%
- hepatocyte CLint (in vitro [2]): 17.7 µL/min/1e6 cells

Compound: [2H]C([2H])([2H])Oc1ccc2[nH]c([S+]([O-])Cc3ncc(C)c(OC)c3C)nc2c1 (racemic) [Example 46, rac-5-Trideuteriomethoxy-2-[(4-methoxy-3,5-dimethyl-2-pyridinyl)methylsulfinyl]-1H-benzimidazole]
- hepatocyte CLint (in vitro [3]): 2.1 µL/min/1e6 cells
- Reduction in the 5-hydroxy-omeprazole formation rate [4]: not found
- % Σ Clint rac. Omeprazole ([4]; human): 107%

Compound: COc1ccc2nc([S@@+]([O-])Cc3ncc(C)c(OC)c3C)[nH]c2c1 [(S)-omeprazole sodium, (S)-5-methoxy-2-[(4-methoxy-3,5-dimethyl-2-pyridinyl)methylsulphinyl]-1H-benzimidazole, reference compound]
- hepatocyte CLint (in vitro [3]): 0.7 µL/min/1e6 cells
- % Σ Clint rac. Omeprazole ([4]; human): 37%

Compound: [2H]C([2H])([2H])Oc1ccnc(C[S+]([O-])c2nc3cc(OC(F)F)ccc3[nH]2)c1OC (racemic) [Example 1, (R/S)-5-Difluoromethoxy-2-[(3-methoxy-4-trideuteriomethoxy-2-pyridinyl)methylsulfinyl]-1H-benzimidazole]
- Percent of compound metabolized [5]: 35%
- Ratio of percent metabolized, Example/Pantoprazole [5]: 0.57
- Percent of compound metabolized [6]: 12%
- Ratio of percent metabolized, Example/Pantoprazole [6]: 0.60
- Percent of compound metabolized [7]: 14%
- Ratio of percent metabolized, Example/Pantoprazole [7]: 0.50
- Percent of compound metabolized [8]: 36%
- Ratio of percent metabolized, Example/Pantoprazole [8]: 0.58
- Percent of compound metabolized [9]: 59%
- Ratio of percent metabolized, Example/Pantoprazole [9]: 0.75
- Percent of compound metabolized [10]: 47%
- Ratio of percent metabolized, Example/Pantoprazole [10]: 0.64
- Percent of compound metabolized [11]: 19%
- Ratio of percent metabolized, Example/Pantoprazole [11]: 0.73

Compound: O.O.O.[2H]C([2H])([2H])Oc1ccnc(C[S@@+]([O-])c2nc3cc(OC(F)F)ccc3[nH]2)c1OC.[Na] [Example 30, (R)-5-Difluoromethoxy-2-[(3-methoxy-4-trideuteriomethoxy-2-pyridinyl)methylsulfinyl]-1H-benzimidazole sodium salt trihydrate]
- % Σ Clint (R)-pantoprazole ([1]; Table 2, relative to (R)-pantoprazole): 21%

Compound: O.[2H]C([2H])Oc1ccnc(C[S+]([O-])c2nc3cc(OC(F)F)ccc3[nH]2)c1OC.[Na] (racemic) [Example 24, rac-5-Difluoromethoxy-2-[(3-methoxy-4-dideuteriomethoxy-2-pyridinyl)methylsulfinyl]-1H-benzimidazole sodium salt mono hydrate]
- % Σ Clint rac. pantoprazole [1, 12]: 48%
- Intrinsic clearance (Clint) [1, 13]: 13.5 μl/min/10^6 cells
- % Σ Clint rac. Pantoprazole [1, 14]: 48%
- hepatocyte CLint (in vitro [2]): 13.5 µL/min/1e6 cells

Compound: [2H]C([2H])([2H])Oc1ccnc(C[S@+]([O-])c2nc3cc(OC(F)F)ccc3[nH]2)c1OC.[Na] [Example 36, (S)-5-Difluoromethoxy-2-[(3-methoxy-4-trideuteriomethoxy-2-pyridinyl)methylsulfinyl]-1H-benzimidazole sodium salt]
- % Σ Clint (S)-pantoprazole ([1]; Table 3, relative to (S)-pantoprazole): 21%
- hepatocyte CLint (in vitro [2]): 3.4 µL/min/1e6 cells

Compound: [2H]C([2H])([2H])Oc1ccnc(C[S@+]([O-])c2nc3cc(OC(F)F)ccc3[nH]2)c1OC [Example 2, (S)(−)-5-Difluoromethoxy-2-[(3-methoxy-4-trideuteriomethoxy-2-pyridinyl)methylsulfinyl]-1H-benzimidazole]
- Percent of compound metabolized [5]: 17%
- Ratio of percent metabolized, Example/Pantoprazole [5]: 0.28
- Percent of compound metabolized [6]: 10%
- Ratio of percent metabolized, Example/Pantoprazole [6]: 0.50
- Percent of compound metabolized [7]: 15%
- Ratio of percent metabolized, Example/Pantoprazole [7]: 0.54
- Percent of compound metabolized [8]: 17%
- Ratio of percent metabolized, Example/Pantoprazole [8]: 0.27
- Percent of compound metabolized [9]: 54%
- Ratio of percent metabolized, Example/Pantoprazole [9]: 0.69
- Percent of compound metabolized [10]: 35%
- Ratio of percent metabolized, Example/Pantoprazole [10]: 0.48
- Percent of compound metabolized [11]: 19%
- Ratio of percent metabolized, Example/Pantoprazole [11]: 0.73

Compound: Sodium (R/S)-{[5-(difluoromethoxy)]-2-[(3-methoxy-4-trideuteriomethoxy-2-pyridinyl)methylsulphinyl]-1H-benzimidazolide} hydrate [Example 6]
- Intrinsic clearance (Clint) ([1]; Table 2, pooled human hepatocytes, M2 formation, Vmax over KM): 5.1 μl/min/10^6 cells
- % Σ Clint rac. pantoprazole [1, 12]: 20%
- Effect of increasing number of [2H] atoms in the 4-methoxy-pyridyl position on M2 formation rates ([1]; series [1H], [2H1], [2H2], [2H3]): decreased M2 formation rates

Compound: [2H]C([2H])([2H])Oc1ccnc(C[S@@+]([O-])c2nc3cc(OC(F)F)ccc3[nH]2)c1OC.[Na] [Example 37, (R)-5-Difluoromethoxy-2-[(3-methoxy-4-trideuteriomethoxy-2-pyridinyl)methylsulfinyl]-1H-benzimidazole sodium salt]
- % Σ Clint (R)-pantoprazole ([1]; Table 3, relative to (R)-pantoprazole): 21%
- hepatocyte CLint (in vitro [2]): 5.5 µL/min/1e6 cells

Compound: [2H]C([2H])([2H])Oc1ccc2[nH]c([S@@+]([O-])Cc3ncc(C)c(OC([2H])([2H])[2H])c3C)nc2c1.[Na] [Example 49, (S)-5-Trideuteriomethoxy-2-[(3,5-dimethyl-4-trideuteriomethoxy-2-pyridinyl)methylsulfinyl]-1H-benzimidazole sodium salt]
- hepatocyte CLint (in vitro [3]): 0.8 µL/min/1e6 cells
- Change of intrinsic clearance (Clint) of 5-hydroxy-omeprazole [4]: did not alter the intrinsic clearance
- % Σ Clint rac. Omeprazole ([4]; human): 40%

Compound: [2H]C([2H])([2H])Oc1ccc2[nH]c([S+]([O-])Cc3ncc(C)c(OC([2H])([2H])[2H])c3C)nc2c1 (racemic) [Example 47, rac-5-Trideuteriomethoxy-2-[(3,5-dimethyl-4-trideuteriomethoxy-2-pyridinyl)methylsulfinyl]-1H-benzimidazole]
- hepatocyte CLint (in vitro [3]): 1.4 µL/min/1e6 cells
- 5-hydroxy-omeprazole formation rate, reduction compared to non-deuterated omeprazole ([4]; human, 60 min): about 1.5 fold
- % Σ Clint rac. Omeprazole ([4]; human): 69%

Compound: [2H]C([2H])([2H])Oc1c(C)cnc(C[S+]([O-])c2nc3cc(OC)ccc3[nH]2)c1C (racemic) [Example 48, rac-5-Methoxy-2-[(3,5-dimethyl-4-trideuteriomethoxy-2-pyridinyl)methylsulfinyl]-1H-benzimidazole]
- hepatocyte CLint (in vitro [3]): 1.4 µL/min/1e6 cells
- 5-hydroxy-omeprazole formation rate, reduction compared to non-deuterated omeprazole ([4]; human, 60 min): about 1.5 fold
- Reduction in the 5-hydroxy-omeprazole formation rate ([4]; human, 60 min): Reduction in the 5-hydroxy-omeprazole formation rate was observed
- % Σ Clint rac. Omeprazole ([4]; human): 69%

Compound: O.[2H]C([2H])([2H])Oc1ccnc(C[S+]([O-])c2nc3cc(OC(F)F)ccc3[nH]2)c1OC.[Na] (racemic) [Example 32, rac-5-Difluoromethoxy-2-[(3-methoxy-4-trideuteriomethoxy-2-pyridinyl)methylsulfinyl]-1H-benzimidazole sodium salt mono hydrate]
- % Σ Clint rac. Pantoprazole [1, 14]: 18%
- hepatocyte CLint (in vitro [2]): 5.1 µL/min/1e6 cells

Compound: COc1ccnc(C[S+]([O-])c2nc3ccc(OC(F)F)cc3[nH]2)c1OC (racemic) [rac. pantoprazole Na 1.5 H2O, 5-difluoromethoxy-2-[(3,4-dimethoxy-2-pyridinyl)methylsulphinyl]-1H-benzimidazole, reference compound]
- % Σ Clint rac. Pantoprazole ([1]; human, hepatocytes): 100%
- % Σ Clint rac. pantoprazole ([1]; human, hepatocytes): 100%
- Intrinsic clearance (Clint) ([1]; human, hepatocytes): 27.9 μl/min/10^6 cells
- hepatocyte CLint (in vitro [2]): 27.9 µL/min/1e6 cells

Compound: COc1ccnc(C[S@+]([O-])c2nc3cc(OC(F)F)ccc3[n-]2)c1OC.COc1ccnc(C[S@+]([O-])c2nc3cc(OC(F)F)ccc3[n-]2)c1OC.O.O.O.[Na+].[Na+] [(S)-pantoprazole Na 1.5 H2O, reference compound]
- % Σ Clint (S)-pantoprazole ([1]; human, hepatocytes): 100%
- Intrinsic clearance (Clint) ([1]; human, hepatocytes): 16.1 μl/min/10^6 cells
